Experimental data: patent US7414068B2, “Benzopyran derivatives substituted with secondary amines including tetrazole, method for the preparation thereof and pharmaceutical compositions containing them” (Dongbu Hannong Chemical Co., Ltd., priority 2002, dated 2008)

What was measured:
[1] = Acute oral toxicity test in rats; conditions: SD, rat, in vivo, single oral dose, suspended in 0.5% methyl cellulose, read-out: lethal dose (LD50) for oral administration
Protocol: In this test, six-week old SPF SD rats were used with two rats assigned to each group. Each group was consisted of two rats. The compounds prepared in example 1, 7, 11, 17, 22, 24, 26, 28, 30, 32, 34, 42, 52, 54, 55, 56, 57, 59, 60, 61, 70, 75, 77, 79, 81, 83, 85, and 89 were suspended in 0.5% methyl cellulose, respectively. […] Also, hematological test and biochemical analysis were accomplished. After sacrificing the animals, autopsy was performed for macroscopic observations of the organs and tissues. As a result, there was no significant changes in clinical symptoms, body weight and mortalities. Also in hematology, serum chemistry parameters, macroscopic observation and drug-related changes were not observed.

isolated rat aorta = assay: Vasodilating effect on blood vessel excised from rats (methoxamine-constricted aorta); conditions: isolated rat aorta constricted with methoxamine (3 μM); read-out: Concentration for inhibition of constriction induced by methoxamine in rat arota (IC50)
Text: Rats (350˜450 g, obtained from the Experimental Animal Team of the Korea Research Institute of Chemical Technology) were knocked to be unconscious by hitting the occipital region, sacrificed by cervical dislocation, and underwent thoracotomy. After being quickly removed, the thoracic aorta was deprived of the adipose tissue and cut into aortic rings of 3 mm width. The aorta was lightly rubbed with cotton club soaked in a modified Krebs Henseleit buffer (Physiological salt solution) to remove the inner epithelial layer therefrom. While being hung in an organ bath containing a physiological buffer, the vascular smooth muscle was allowed to equilibrate under a resting tension of 2 g and then, stand for 1 hour at 37° C. for stabilization, supplying a carbogen consisting of 95% O2˜5% CO2.
Thereafter, the vascular smooth muscle was constricted with 10^−5M phenylephrine and washed several times with physiological saline solution. The said procedure was repeated again to ensure the stable reactivity of vascular smooth muscle to repetitive constriction/relaxation.
Thereafter, 3×10^−6 M methoxamine was applied to induce an intensive constriction in the vascular smooth muscle. When the vasoconstriction induced by the methoxamine was reached and maintained to a maximum, test compounds and control material was cumulatively added to the organ bath in concentration of 1, 3, 10 and 30 μM, respectively, to examine the vasodilating effect. Cromakalim, BMS-180448 (the compound of formula 4) and BMS-191095 (the compound of formula 5), known to be the first generation KATP opener with potent vasodilating effect were used as control materials.
The change rate of constriction by the addition of the drugs compared to the maximal constriction induced by methoxamine was calculated to plot a concentration-relaxation response curve. Through a least linear regression analysis, IC50 that the drug concentration at which the vascular tissue is relaxed to 50% extent of the maximal constriction, was obtained for each drug.

cortical neuron cells = assay: Protective effect on iron-induced neuronal cell injury (LDH release); format: cell-based; conditions: FeSO4 50 μM; for protective effect on neuron cell: Inhibition (%, 30 μM compound addition): LDH reduction vs control; for IC50: LDH
Protocol: From the brains of 17˜18 day-old embryos, cortical neuron cells were isolated and then, cultured at 37° C. for 7˜9 days in a 5% CO2 incubator. The said cortical cell cultures were washed twice with MEM (Minimum essential medium) to reduce the serum level to 0.2%. […] Then, the compound of the said concentration was pre-treated for 30 min, respectively. For the experiment, test compound was dissolved in DMSO and diluted in a medium. At this time, the final concentration of DMSO was not allowed to exceed 0.1%. For control group, only vehicle was applied.
After the said pre-treatment, FeSO4 was added to the medium for a final concentration to be 50 μM. The medium was cultured in CO2 incubator for 24 hours. During the incubation, lactate dehydrogenase (LDH) was released by iron. The serum level of lactate dehydrogenase released into the medium was measured to assess necrosis of neuronal cell by the oxidative toxicity of iron. The protective effect on neuron cells of the test compounds was evaluated by calculating the LDH reduction rate of treatment-group compared with that of the control group.

[2] = tested on: isolated ischemic rat heart; assay: Cardioprotective effect in ischemic heart models of rats (Langendorff); conditions: 10 μM
Protocol: Male rats (300˜450 g, obtained form the experimental animal team of the Korea Research Institute of Chemical Technology) were anaesthetized by the intra-peritoneal injection of sodium pentobarbital at a dose of 100 mg/kg. Heparin (1,000 U/kg) was injected to the tail vein and then the heart was enucleated. Particularly, cannula (PE 240) was inserted to the organ. Rats were mechanically ventilated with a rodent ventilator, in situ aorta cannula was inserted into their aorta. In retorograde perfusion, their hearts were enucleated, then just hung onto Langendorff Apparatus. Tissue attached at the heart was removed. Heart was perfused in oxygenated modified Krebs-Henseleit bicarbonate buffer (composition<mM/L>116 NaCl, 4.7 KCl, 1.1 MgSO4, 1.17 KH2PO4, 24.9 NaHCO3, 2.52 CaCl2, 8.32 Glucose, 2.0 Pyruvate) at a constant perfusion pressure (85 mmHg). A metal cannula attached to latex balloon filled with solvent (ethanol: water=1:1 (v/v)) was placed in the left ventricle through pulmonary vein and connected to a isovolumetric pressure transducer (H.S.E., Germany) for measurement of left ventricular pressure (LVP). The hearts were allowed to equilibrate for 15 min, at which time left ventricular end-diastolic pressure (EDP) was adjusted to 5 mmHg and this balloon volume was maintained throughout the experiment.
Baseline cardiac contractile function, heart rate (HR), and coronary flow (CF) were measured. Cardiac contractile function was calculated by […], yielding LVDP (left ventricular developed pressure). Double product RPP (rate-pressure product) (DP), another important parameter for indirectly assessing cardiac performance in Langendorff heart impossible to measure cardiac output was calculated by multiplying HR by LVDP.
Throughout the experiment, total coronary blood flow was measured by the use of coronary flow probe (diameter: 1.0 mm) installed in aortic cannula with electromagnetic flowmeter. Temperature of heart was steadily maintained by immersing the heart at 37° C. in physiological saline solution to which 95% O2/5% CO2 was constantly supplied. After stabilization for 15 min, the hearts were pre-treated for 10 min in vehicle (0.04% DMSO) or mixture containing the compound of the present invention or control material. Thereafter, cardiac contractile function, HR and CF were repeatedly measured. Global ischemia was induced by completely shutting off the perfusate for 30 min. Severity of ischemia was determined as the time to contracture (TTC, min) during global ischemia in which the first 5 mmHg increase in EDP was observed. Then, the hearts were reperfused and, 30 min later, contractile functions (LVDP, HR and CF) was repeatedly measured. After reperfusion was accomplished for 30 min, LDH (lactate dehydrogenase) was measured as a sensitive index for loss of cell viability with a kit.

SMILES	LD50 [1]	IC50 (isolated rat aorta)	protective effect on neuron cell: Inhibition (%, 30 μM compound addition) (cortical neuron cells; 24 hours)	IC50 (cortical neuron cells; Cortical neurone, 24 h)	IC50 (cortical neuron cells; 24 hours)	EDP (mmHg) ([2]; after 30 min global ischemia and reperfusion)	LDH (u/g) ([2]; reperfusion LDH release)	LVDP X HR (%) ([2]; reperfusion, % of pre-treatment DP)	TTC ([2]; time to contracture during global ischemia)
COC(OC)[C@@]1(C)Oc2ccc(N)cc2[C@@H](N(Cc2nnn(C)n2)c2cccc(Cl)c2)[C@@H]1O [Example 22, (2S,3S,4R)-6-amino-4-[N-(3-chlorophenyl)-N-(2-methyl-2H-tetrazol-5-ylmethyl)amino]-3-hydroxy-2-methyl-2-dimethoxymethyl-3,4-dihydro-2H-1-benzopyran]	> 2000 mg/kg	> 30 µM	97%	5.9 µM	–	–	–	–	–
COC(OC)[C@]1(C)Oc2ccc(N)cc2[C@H](N(Cc2nnn(C)n2)c2ccc(OC(F)(F)F)cc2)[C@H]1O [Example 83, (2R,3R,4S)-6-amino-4-[N-(4-trifluoromethoxyphenyl)-N-(2-methyl-2H-tetrazol-5-ylmethyl)amino]-3-hydroxy-2-methyl-2-dimethoxymethyl-3,4-dihydro-2H-1-benzopyran]	> 2000 mg/kg	> 30 µM	80%	3.7 µM	–	–	–	–	–
COC(OC)[C@@]1(C)Oc2ccc(N)cc2[C@H](N(Cc2nnn(C)n2)c2cccc(Cl)c2)[C@H]1O [Example 26, (2S,3R,4S)-6-amino-4-[N-(3-chlorophenyl)-N-(2-methyl-2H-tetrazol-5-ylmethyl)amino]-3-hydroxy-2-methyl-2-dimethoxymethyl-3,4-dihydro-2H-1-benzopyran]	> 2000 mg/kg	24.6 µM	97%	2.2 µM	–	–	–	–	–
COC(OC)[C@@]1(C)Oc2ccc(N)cc2[C@H](N(Cc2nnn(C)n2)c2ccc(C(F)(F)F)cc2)[C@H]1O [Example 34, (2S,3R,4S)-6-amino-4-[N-(4-trifluoromethylphenyl)-N-(2-methyl-2H-tetrazol-5-ylmethyl)amino]-3-hydroxy-2-methyl-2-dimethoxymethyl-3,4-dihydro-2H-1-benzopyran]	> 2000 mg/kg	> 30 µM	111%	1.5 µM	–	–	–	–	–
COC(OC)[C@@]1(C)Oc2ccc(N)cc2[C@@H](N(Cc2nnn(C)n2)c2ccc(C(F)(F)F)cc2)[C@@H]1O [Example 75, (2S,3S,4R)-6-amino-4-[N-(4-trifluoromethylphenyl)-N-(2-methyl-2H-tetrazol-5-ylmethyl)amino]-3-hydroxy-2-methyl-2-dimethoxymethyl-3,4-dihydro-2H-1-benzopyran]	> 2000 mg/kg	> 30 µM	125%	< 2 µM	1.8 µM	–	–	–	–
COC(OC)[C@]1(C)Oc2ccc(N)cc2[C@@H](N(Cc2nnn(C)n2)c2ccc(OC(F)(F)F)cc2)[C@@H]1O [Example 85, (2R,3S,4R)-6-amino-4-[N-(4-trifluoromethoxyphenyl)-N-(2-methyl-2H-tetrazol-5ylmethyl)amino]-3-hydroxy-2-methyl-2-dimethoxymethyl-3,4-dihydro-2H-1-benzopyran]	> 2000 mg/kg	> 30 µM	119%	< 2 µM	1.8 µM	–	–	–	–
COC(OC)[C@@]1(C)Oc2ccc([N+](=O)[O-])cc2[C@H](N(Cc2nnn(C)n2)c2ccc(OC(F)(F)F)cc2)[C@H]1O [Example 31, (2S,3R,4S)-6-nitro-4-[N-(4-trifluoromethoxyphenyl)-N-(2-methyl-2H-tetrazol-5-ylmethyl)amino]-3-hydroxy-2-methyl-2-dimethoxymethyl-3,4-dihydro-2H-1-benzopyran]	–	> 30 µM	86%	< 2 µM	1.8 µM	–	–	–	–
COC(OC)[C@]1(C)Oc2ccc(N)cc2[C@@H](N(Cc2nnn(C)n2)c2ccc(C(F)(F)F)cc2)[C@@H]1O [Example 77, (2R,3S,4R)-6-amino-4-[N-(4-trifluoromethylphenyl)-N-(2-methyl-2H-tetrazol-5-ylmethyl)amino]-3-hydroxy-2-methyl-2-dimethoxymethyl-3,4-dihydro-2H-1-benzopyran]	> 2000 mg/kg	> 30 µM	111%	< 2 µM	1.9 µM	–	–	–	–
COC(OC)[C@@]1(C)Oc2ccc([N+](=O)[O-])cc2[C@@H](N(Cc2ccccc2)Cc2nnn(C)n2)[C@@H]1O [Example 7, (2S,3S,4R)-6-nitro-4-[N-benzyl-N-(2-methyl-2H-tetrazol-5-ylmethyl)amino]-3-hydroxy-2-methyl-2-dimethoxymethyl-3,4-dihydro-2H-1-benzopyran]	> 2000 mg/kg	5.59 µM	59%	34.1 µM	–	–	–	–	–
COC(OC)[C@@]1(C)Oc2ccc([N+](=O)[O-])c(C)c2[C@@H](N(Cc2nnn(C)n2)c2ccc(Cl)cc2)[C@@H]1O [Example 98, (2S,3S,4R)-6-nitro-5-methyl-4-[N-(4-chlorophenyl)-N-(2-methyl-2H-tetrazol-5-ylmethyl)amino]-3-hydroxy-2-methyl-2-dimethoxymethyl-3,4-dihydro-2H-1-benzopyran]	–	7.34 µM	85%	10.5 µM	–	–	–	–	–
COC(OC)[C@@]1(C)Oc2ccc([N+](=O)[O-])cc2[C@@H](N(Cc2nnn(C)n2)c2ccc(Cl)cc2)[C@@H]1O [Example 1, (2S,3S,4R)-6-nitro-4-[N-(4-chlorophenyl)-N-(2-methyl-2H-tetrazol-5-ylmethyl)amino]-3-hydroxy-2-methyl-2-dimethoxymethyl-3,4-dihydro-2H-1-benzopyran]	> 2000 mg/kg	7.14 µM	71%	18.1 µM	–	29.3 mmHg	15.2 u/g	46.8%	24.8 min
